Reference: publication PMC10604323, “Cannabidiol Modulates M-Type K^+ and Hyperpolarization-Activated Cation Currents” (Biomedicines, 2023)

Experiments:
[1] = test system: T1, M-type K+ current (IK(M)) of GH3 cells; KV7.2, KV7.3 and KV7.5 channels; experiment: whole-cell patch clamp; type: cell-based; details: high-K+ Ca2+-free solution with 1 μM TTX, 1 s step from -50 to -10 mV, pH 7.4, 20-25 °C, native current
T1 construct: gene Kcnq2; native channels in GH3 cells; subunit composition not determined
Text: whole-cell patch clamp on M-type K+ current (IK(M)) of GH3 cells; KV7.2, KV7.3 and KV7.5 channels | concentration–response curve for the CBD-induced inhibition of the density of IK(M)

[2] = test system: T2, hyperpolarization-activated cation current (Ih) of GH3 cells; HCN2, HCN3, and a combination of HCN2 and HCN3; experiment: whole-cell patch clamp; type: cell-based; details: Ca2+-free Tyrode's solution with 0.5 mM CdCl2 and 1 μM TTX, 2 s step from -40 to -110 mV, pH 7.4, 20-25 °C, native current
T2 construct: native channels in GH3 cells; subunit composition not determined

## C=C(C)[C@@H]1CCC(C)=C[C@H]1c1c(O)cc(CCCCC)cc1O [Cannabidiol, 2-[(1R,6R)-3-methyl-6-(prop-1-en-2-yl)cyclohex-2-en-1-yl]-5-pentylbenzene-1,3-diol]
[1]
  IC50: 3.6 µM
[2]
  IC50: 3.3 µM
